According to patent US7449480B2, “Small molecule inhibitors of HER2 expression” (Baylor College of Medicine, priority 2002, dated 2008):
Entries after “also recorded” stand apart in the source; their conditions may differ.

How the values were obtained:
[1] = test system: SK-BR3 breast cancer cells; experiment: Cell viability assay (WST-1) in SK-BR3 breast cancer cells; type: cell-based, human; conditions: for IC50: Homo sapiens, SK-BR-3, 48 hrs incubation, WST-1; for ability to kill SK-BR3 cells (biological activity, in words): compared with adamanolol
Experimental: SK-BR3 breast cancer cells were plated on 96-well plates at density of 5×10^3 cells/well and maintained for 24 hrs. The cells were then incubated with varied concentrations of each compound for 48 hrs, followed by addition of Premix WST-1 Solution (Takara). Cell viability was estimated by measuring absorbance at 450 nm after 1 hr with a SPECTRAmax microplatereader.

[2] = target: T1, ESX-Sur-2 interaction (Homo sapiens, UniProt Q9ULK4); experiment: Inhibition of the ESX-Sur-2 interaction in vitro (fluorescence of FITC-ESX129-145 with GST-Sur2352-625); type: binding; conditions: for IC50: FITC-ESX129-145 (152 nM), GST-Sur2352-625 (212 nM); for inhibition of the ESX-Sur-2 interaction in vitro (in words): in vitro fluorescence assay
T1 construct: made in house
T1 sequence (Q9ULK4 352-625): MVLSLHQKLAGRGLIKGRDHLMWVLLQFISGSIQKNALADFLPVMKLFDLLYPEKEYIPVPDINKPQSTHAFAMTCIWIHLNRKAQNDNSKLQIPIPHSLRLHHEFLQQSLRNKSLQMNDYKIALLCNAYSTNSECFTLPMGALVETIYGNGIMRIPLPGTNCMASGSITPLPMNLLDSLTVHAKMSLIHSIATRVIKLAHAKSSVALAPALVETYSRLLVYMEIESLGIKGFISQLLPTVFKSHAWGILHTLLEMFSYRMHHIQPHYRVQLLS
Experimental: To monitor the ESX-DRIP130 interaction, we labeled ESX129-145 with fluorescein isothiocyanate (FITC; Pierce) at the Lys144 position and measured its fluorescence spectra upon adding the glutatathione-S′-transferase (GST) fusion of DRIP130352-625. ESX129-145 was synthesized by standard Fmoc chemistry (the NH2 terminus was capped by an acetyl group during the synthesis) and purified by HPLC. The peptide was then coupled with FITC at the Lys144 position in a conjugation buffer (100 mM carbonate-bicarbonate buffer, pH 9) in dark and purified by NAP-5 desalting column (Amersham). The labeled peptide was quantified by UV and visible absorbance.
GST-Sur-2352-625 was expressed and purified. Varied concentrations of the fusion protein were added to FITC-ESX129-145 (10 nM) in phosphate buffered saline containing 2% (v/v) ethanol, and the fluorescence spectra of FITC-ESX129-145 were measured by an ABI LS-50B Fluorescence Spectrometer (Ex: 490 nm). The dissociation constant of the interaction was estimated to be 12 μM through the emission perturbation at 522 nm.
To examine the effects of adamanolol on the interaction in vitro, the ethanol component of the binding buffer was replaced with an ethanolic solution of adamanolol. The fractions of FITC-ESX129-145 (10 nM) bound to 50 μM of GST-Sur-2352-625 were estimated by measuring fluorescence emission at 522 nm. ESX129-145 and pindolol were used as positive and negative controls, respectively.
In another series of derivatives (the R3 substituents in Table 1), the adamantane group of adamanolol was substituted (11a-d). […] The binding fractions were calculated on the basis of fluorescence spectra of FITC-ESX129-145 (152 nM) in presence of GST-Sur2352-625 (212 nM) and varied concentrations of each adamanolol derivative.

[3] = Solubility in neutral aqueous solution; type: physicochemical
Experimental: When the amino group of the handle was protonated, wrenchnolol (7b) and its aminopropyl version (7a) became soluble up to ˜1 mM in neutral aqueous solution. The high water solubility enabled NMR analysis of these molecules in a buffered aqueous solution, and their proton signals were completely assigned through a combination of NOESY, DQF-COSY, and HOHAHA data sets (Table S1).

[4] = test system: ESX activation domain; experiment: Transcription reporter gene assay (GAL4 fusion, SEAP), ESX activation domain; type: cell-based, human
Experimental: (§1) Mammalian expression vectors each encoding the activation domain of ESX, VP16, or NFκBp65 fused with the GAL4 DNA-binding domain were used. Each expression construct was co-transfected to HEK293Tag human kidney cells together with a reporter plasmid in which the production of secreted alkaline phosphatase (SEAP) is under control of an IL-2 promoter carrying five GAL4 binding sites. After a 24 hour incubation in the presence or absence of adamanolol, an aliquot of the culture was assayed for SEAP activity. The total amounts of transfected DNA were normalized.
(§2) mammalian expression vectors, each encoding the activation domain of ESX, VP16, or NF-κB p65 fused with the GAL4 DNA-binding domain (amino acids 1-94), were used. Each expression construct was co-transfected to HEK293Tag human kidney cells together with a reporter plasmid in which the production of secreted alkaline phosphatase (SEAP) is under control of an IL2 promoter carrying five GAL4 binding sites. After 10-hr incubation with wrenchnolol (20 μM), an aliquot of the culture was assayed for SEAP activity.

[5] = test system: VP16 activation domain; experiment: Transcription reporter gene assay (GAL4 fusion, SEAP), VP16 activation domain; type: cell-based; conditions: HEK293Tag cells, 24 hour incubation with adamanolol
Experimental: as §1, §2

[6] = test system: Her2; experiment: Her2 protein expression by western blot of cell lysates; type: cell-based, human; conditions: SK-BR3 cells, 7.3 μM, 24 hrs; α-tubulin not reduced; listed as adamanolol
Text: Sur-2 is a human homolog of […] elegans Sur-2, a protein of unknown function whose mutations suppress the phenotype of an activated ras mutation (Singh et al., 1995), and it has been linked to the transcription-activating function of the adenovirus E1A protein and the Elk-1 transcription factor. […] To test this, we designed a cell-permeable peptide that binds Sur-2 (referred to as TAT-ESX129-145). The design takes advantage of the binding affinity of ESX129-145 and the cell internalization property of the 11-aa peptide derived from the HIV TAT protein. We first examined whether TAT ESX129-145 reduces endogenous expression of the Her2 gene in three Her2-overexpressing breast cancer cell lines, SK-BR-3, MDA-MB-453, and […] (FIG. 4). Cells were incubated in the presence or absence of TAT-ESX129-145, and the protein levels of Her2 were examined by Western blot analyses of normalized amounts of cell lysates.
Her2-overexpressing SK-BR3 cells were treated by 7.3 μM of adamanolol for 24 hrs, and whole cell lysates were analyzed by western blots. […]
SK-BR3 cells were treated by 7 μM of wrenchnolol for 24 hrs, and whole cell lysates were analyzed by western blots. […]

[7] = test system: Her2-positive breast cancer cell lines (SK-BR3, MDA-MB453, and MCF-7); experiment: Growth and viability of Her2-positive breast cancer cell lines; type: cell-based, human; conditions: SK-BR3, MDA-MB453, MCF-7, 24 hrs
Experimental: (§3) In contrast to the Her2-overexpressing cells, MDA-MB-468, a breast cancer cell line with no detectable levels of Her2, was resistant to TAT-ESX129-145 (FIGS. 5A and 5B). […] The effects of TAT-ESX129-145 on an MCF7 cell line stably transfected with the Her2 gene were examined.
(§4) The breast cancer cells were plated on 96-well plates at the density of 5×10^3 cells/well and maintained for 24 hrs. Adamanolol was added to the medium at varied concentrations and incubated for another 24 hrs. Premix WST-1 solution (Takara) was added to each well and incubated for 2 hrs. Cell viability was estimated by measuring absorbance at 450 nm with a SPECTRAmax microplate reader.

[8] = test system: MDA-MB468; experiment: Growth and viability of Her2-negative MDA-MB468 cells; type: cell-based, human; conditions: no detectable levels of Her2; 24 hrs
Experimental: as §3, §4

[9] = test system: BT474 cells; experiment: Animal study: BT474-derived tumors in mammary fat pads of nude mice; type: in vivo; conditions: 20 mg/kg daily intraperitoneal, 5 consecutive days each week for two weeks
Experimental: Breast cancer cell lines derived from BT474 after one round (BT474M1) or two rounds (BT474M2) of tumorigenic selection were used. 5×10^6 cells were injected with Matrigel into mammary fat pads of nude mice. Two tumors were inoculated for each animal and each treatment group contained 5 animals. Five weeks after inoculation when the tumors were well established (about 100 mm^3 in average) the treatment started (day 0 in the figure). Each mouse received adamanolol (7QH2) at a daily dose of 20 mg/kg through intraperitoneal injection for 5 consecutive days in each week for two weeks. Tumor volumes were measured every three days. The percentile of the tumor volume related to the initial volume at day 0 was plotted for each time point. Adamanolol is a potent tumor growth inhibitor of HER-2/neu-overexpressing cancer cells in vivo.

CC(C)CN(CC(O)COc1cccc2[nH]ccc12)C(=O)N1CCC(C2CCN(C(=O)C34CC5CC(CC(C5)C3)C4)CC2)CC1 (stereo not drawn) [Compound 4b]
IC50 [1]: 4.1 ± 0.2 µM
IC50 [2]: 15.1 ± 0.8 µM

CC(=O)N1CCC(C2CCN(C(=O)N(CC(O)COc3cccc4[nH]ccc34)C(C)C)CC2)CC1 (stereo not drawn) [Compound 11a]
IC50 [1]: > 100 µM
ability to kill SK-BR3 cells (biological activity, in words) [1]: significant loss of the biological activity
IC50 [2]: > 40 µM
inhibition of the ESX-Sur-2 interaction in vitro (in words) [2]: almost no ability to block

CC(C)N(CC(O)COc1cccc2c1ccn2S(=O)(=O)c1cccc2cccnc12)C(=O)N1CCC(C2CCN(C(=O)C34CC5CC(CC(C5)C3)C4)CC2)CC1 (stereo not drawn) [Compound 5b]
IC50 [1]: 5 ± 0.3 µM
IC50 [2]: 12 ± 0.9 µM

CC(C)(C)OC(=O)NCCCN(CC(O)COc1cccc2[nH]ccc12)C(=O)N1CCC(C2CCN(C(=O)C34CC5CC(CC(C5)C3)C4)CC2)CC1 (stereo not drawn) [Compound 4e]
IC50 [1]: 11.7 ± 0.1 µM
IC50 [2]: 11.9 ± 0.7 µM

COCC(O)CN(C(=O)N1CCC(C2CCN(C(=O)C34CC5CC(CC(C5)C3)C4)CC2)CC1)C(C)C (stereo not drawn) [Compound 12a]
IC50 [1]: > 100 µM
ability to kill SK-BR3 cells (biological activity, in words) [1]: abolished
IC50 [2]: > 40 µM
inhibition of the ESX-Sur-2 interaction in vitro (in words) [2]: abolished

Cc1ccc(S(=O)(=O)n2ccc3c(OCC(O)CN(C(=O)N4CCC(C5CCN(C(=O)C67CC8CC(CC(C8)C6)C7)CC5)CC4)C(C)C)cccc32)cc1 (stereo not drawn) [Compound 5a, N-tosyladamanolol]
IC50 [1]: 2.7 ± 0.3 µM
ability to kill SK-BR3 cells (biological activity, in words) [1]: increased the potency
IC50 [2]: 10 ± 1 µM
inhibition of the ESX-Sur-2 interaction in vitro (in words) [2]: increased

Cc1ccc(S(=O)(=O)n2ccc3c(OCC(O)CN(CCCN)C(=O)N4CCC(C5CCN(C(=O)C67CC8CC(CC(C8)C6)C7)CC5)CC4)cccc32)cc1 (stereo not drawn) [Compound 7a]
IC50 [1]: 4.7 ± 0.1 µM
IC50 [2]: 10.2 ± 1.1 µM
solubility [3]: ~1000 µM

CC(C)N(CC(O)COc1cccc2[nH]ccc12)C(=O)N1CCC(C2CCN(C(=O)C34CC5CC(CC(C5)C3)C4)CC2)CC1 (stereo not drawn) [Compound 4a, 1′-(adamantane-1-carbonyl)-[4,4′]bipiperidinyl-1-carboxylic acid [2-hydroxy-3-3-(1H-indol-4-yloxy)-propyl]-isopropyl-amide]
IC50 [1]: 6.4 ± 1.8 µM
IC50 [2]: 15.4 ± 0.3 µM
inhibition of the ESX-Sur-2 interaction in vitro (in words) [2]: inhibits
ability of the ESX activation domain to stimulate transcription ([4]; HEK293Tag cells, 24 hour incubation with adamanolol): impaired; also recorded: selectively inhibits
effect on the VP16 activation domain [5]: little effects
expression of Her2 protein [6]: significantly reduced; also recorded: inhibition of Her2
viability of Her2-positive breast cancer cell lines ([7]; listed as Adamanolol): impaired the viability
viability of Her2-positive breast cancer cell lines ([7]; listed as adamanolol): selectively impairs the cell growth and viability
viability of MDA-MB468 [8]: much milder effects
tumor growth (tumor volume relative to day 0) [9]: significant growth suppression

O=C(NCC(O)COc1cccc2[nH]ccc12)N1CCC(C2CCN(C(=O)C34CC5CC(CC(C5)C3)C4)CC2)CC1 (stereo not drawn) [Compound 4d]
IC50 [1]: > 100 µM
ability to kill SK-BR3 cells (biological activity, in words) [1]: abolished; also recorded: little activity
IC50 [2]: > 40 µM
inhibition of the ESX-Sur-2 interaction in vitro (in words) [2]: abolished
ability of the ESX activation domain to activate the reporter gene ([4]; HEK293 cells, 20 μM, 10-hr incubation): almost no effects; also recorded: little effects
